In patent publication US20210177823A1, “NEUROMODULATING COMPOSITIONS AND RELATED THERAPEUTIC METHODS FOR THE TREATMENT OF CANCER” (Flagship Pioneering Innovations V, Inc., priority 2016, published 2021):
“Also recorded” adds a separate entry of the source.

Columns and labels:
[1] = system: NCI-H82 small cell lung cancer cells; assay: Cancer cell growth in low-serum spheroid culture, Cell Titer Glo readout; format: cell-based; settings: at low micromolar concentration; tested 10 nM-10 uM
Experimental: (§1) Cancer cell lines were grown in appropriate cell culture medium. On day 0, cells were plated in black organogenix nanocult 96-well plates with low-bind honeycomb pattern. Cells were plated in a low serum medium to increase the dynamic range observable for growth promotion. Within three days spheroids were visible. On day 1 post plating, compounds were added at a range of doses to the cells, between mid-nanomolar and low micromolar, spanning at least a 100× dose range. On day 4 post plating, number of cells are quantified by staining with Cell Titer Glo and reading on a plate reader. We observed that adenosine at 10-200 μM enhances the growth of multiple pancreatic cancer cell lines (CFPAC, PANC-1, PL45, ASPC-1, CAPAN-1, CAPAN-2) by at least 10% increased signal over 24 hours than untreated cells. Upon follow-up of the adenosine pathway, we performed a similar assay with chemical antagonists of adenosine receptors at a range of concentrations between 10 nM-10 uM.

[2] = system: patient-derived xenograft tumors from patient 5197; assay: SCLC PDX subcutaneous tumor with implanted microdose drug delivery device, immunohistochemistry (CC3, phospho-AKT); format: in vivo, nude mice; settings: intratumoral device reservoir, 24 hours in situ; patient 5197 PDX
Experimental: (§2) Small cell lung cancer cells derived from a human donor (CrownBio, San Diego Calif.) were injected subcutaneously into the flanks of nude mice. Tumors were grown to a size of approximately 6-10 mm before device implantation.
(§3) Microdose drug delivery devices were manufactured as described in Jonas et al., Sci. Transl. Med. 7, 284ra57 (2015). Briefly, cylindrical, micro-scale devices with 0.82 (diameter)×4 mm (length) were manufactured from medical-grade Delrin acetyl resin blocks (DuPont) by micromachining (CNC Micromachining Center, Cameron). Circular reservoirs were shaped on the outer surface of devices in dimensions of 230 um (diameter)×250 um (depth). Drug-polymer mixtures were packed into device reservoirs using a tapered, metal needle (Electron Microscopy Sciences) until the reservoirs were completely filled.
Devices were implanted directly into the mouse tumor using a 19-gauge spinal biopsy needle (Angiotech) and a retractable needle obturator to push the device into the tissue. Devices containing the drugs remained in situ for 24 hours.
(§4) The flank tumor was excised and the tissue containing the device was fixed for 24 hours in 10% formalin and perfused with paraffin. This specimen was sectioned using a standard microtome and tissue sections were collected from each reservoir. Sections were antibody-stained by standard immunohistochemistry using antibodies against cleaved-caspase-3 (CC3), KI-67, and phospho-AKT (Cell Signaling) and scored using an ImageJ image (v1.48) analysis algorithm in a blinded manner.

[3] = system: BXPC3 pancreatic cancer cells; assay: Cancer cell growth in low-serum spheroid culture, Cell Titer Glo readout; format: cell-based; settings: at low micromolar concentration; tested 10 nM-10 uM
Experimental: as §1

[4] = system: patient-derived xenograft tumors from patient 5217; assay: SCLC PDX subcutaneous tumor with implanted microdose drug delivery device, immunohistochemistry; format: in vivo, nude mice; settings: patient 5217 PDX, ~10× lower DRD2 mRNA than patient 5197; device 24 hours in situ
Experimental: as §2, §3
Devices were implanted directly into the mouse tumor using a 19-gauge spinal biopsy needle (Angiotech) and a retractable needle obturator to push the device into the tissue. […]
as §4, with “This specimen was sectioned using a standard microtome and tissue sections were collected from each reservoir.” left out

[5] = system: Glioblastoma lines A172, LN-18, T98G, LN-229, U87 MG, and U118 MG; assay: Colony formation assay in glioblastoma cell lines (Cyto60 fluorescence); format: cell-based; settings: 1 μM to 20 μM, day 9, LN-229, U87, U118
Experimental: Glioblastoma lines A172, LN-18, T98G, LN-229, U87 MG, and U118 MG were passaged in culture per manufacturer's recommendations.
On day 0 of the experiment, cells were plated in 24 well plates at a density of 500 cells per well in triplicate. On day 1, DRD2 antagonists haloperidol and L741,626 were added to the wells at a range of concentrations between 1 μM and 20 μM. Media was changed every three days. On day 9 of the experiment, cells were fixed with formalin and stained with Cyto60 (a nucleic acid stain). Fluorescence was read on a Licor-Odyssey imager to assess the number of viable cells in the assay.

[6] = system: MIAPaCa2 Fluc cells; assay: Orthotopic MIAPACA2 pancreatic cancer model, tumor weight at end of study; format: in vivo, Nude mice (Nu/Nu); settings: daily IP, three weeks after initiation of dosing; for reduction in tumor weight at the end of study: compared to vehicle-treated group
Experimental: MIAPaCa2 Fluc cells were grown in DMEM tissue culture media with 10% fetal calf serum, 2.5% Horse Serum, 1% penicillin/streptomycin and Puromycin (20 ug/mL). On the day of implantation, cells were washed in PBS, trypsinized and resuspended at a density of 2×10^6 cells/ml in a Matrigel solution prior to being implanted into the pancreas a volume of 0.05 mL using a 25 G needle. Nude mice (Nu/Nu) were anesthetized and the pancreas exposed via peritoneal incision and physical displacement of the spleen. Cells were injected into the pancreas in a total volume of 0.05 mL and the surgical wound closed with VetBond. Bioluminescence was assessed by administration of D-luciferin and imaging on an IVIS system. Mice with leakage of bioluminescent signal immediately after surgery were removed from study. Mice were randomized into groups of equal mean bioluminescence approximately 14 days post-implant. […] One group of mice received haloperidol alone, a second group received gemcitabine chemotherapy (the standard of care for human pancreatic cancer treatment), and a third group received a combination of haloperidol and gemcitabine. For groups also receiving gemcitabine, gemcitabine was dosed 50 mg/kg IP daily. Tumor growth was determined bi-weekly with bioluminescent measurement. The study was terminated three weeks after initiation of drug dosing. At termination, mice were sacrificed and pancreas collected and weighed.

[7] = system: pancreatic cancer cell lines (CFPAC, PANC-1, PL45, ASPC-1, CAPAN-1, CAPAN-2); assay: Cancer cell growth in low-serum spheroid culture, Cell Titer Glo readout; format: cell-based; settings: adenosine at 10-200 μM, over 24 hours

O=C(Cc1ccccc1)Nc1nc2ccc(Cl)cc2c2nc(-c3ccco3)nn12 [MRS-1220]
inhibition of growth of NCI-H82 small cell lung cancer cells [1]: inhibited the growth

N.N.[Cl][Pt][Cl] [cisplatin]
cell killing as measured by CC3 positive tissue [2]: minimal cell killing

CCCn1c(=O)c2[nH]c(C34CC5CC(CC3C5)C4)nc2n(CCC)c1=O [KW3902]
inhibition of growth of BXPC3 pancreatic cancer cells [3]: inhibited the growth
inhibition of growth of NCI-H82 small cell lung cancer cells [1]: inhibited the growth

OC1(c2ccc(Cl)cc2)CCN(Cc2c[nH]c3ccccc23)CC1 [L-741,626]
cell killing as measured by CC3 positive tissue [2]: dose-dependent cell killing
phospho-AKT staining gradient (dopamine receptor signaling) [2]: negative gradient
impact of treatment on tumor [4]: at all not impacted; also recorded: not impacted at all
number of glioblastoma cells growing in culture compared to DMSO control [5]: reduce the number of glioblastoma cells

Nc1ccn([C@@H]2O[C@H](CO)[C@@H](O)C2(F)F)c(=O)n1 [gemcitabine]
reduction in tumor weight at the end of study [6]: equivalent

O=C(CCCN1CCC(O)(c2ccc(Cl)cc2)CC1)c1ccc(F)cc1 [haloperidol]
reduction in tumor weight at the end of study [6]: ~50%
tumor weight at the end of study ([6]; vehicle 300 mg): 150 mg
number of glioblastoma cells growing in culture compared to DMSO control [5]: reduce the number of glioblastoma cells

Nc1ncnc2c1ncn2[C@@H]1O[C@H](CO)[C@@H](O)[C@H]1O [adenosine]
enhancement of growth, increased signal than untreated cells [7]: at least 10%
